Measured values reported in US20020107245A1, “Method for treating fibrotic diseases or other indications IVC” (priority 2000, published 2002).
Structures can show the parent of a compound that is named as a salt.

Key:
[1] = system: Rats; assay: Rat left anterior descending coronary artery ligation, histological examination of hearts; format: in vivo; conditions: 10 mg/kg daily intraperitoneal for 30 days before ligation and 14 days after
Experimental: Rats received a daily intraperitoneal dose of 10 mg/kg 3-[2-phenyl-2-oxoethyl]-4,5-dimethyl-thiazolium salt (compound A) (n=14) or placebo (n=15) for 30 days. The animals then underwent a thoracotomy and the left anterior descending coronary artery ligated. The chest was then closed and the animals allowed to recover for 14 days while continuing to be treated with compound A or placebo. The animals were then sacrificed and the hearts removed for histological examination. The weight of the infarcted tissue was 0.16±0.04 g for the placebo treated animals compared to 0.11±0.05 g for the compound A treated animals (p=0.04).

[2] = system: elderly patients with pulse pressures greater than 60 mm Hg; assay: Phase Ia clinical trial; format: in vivo, human
Excerpt: When the heart pumps blood into the vascular system, the ability of the arteries to expand helps to push blood through the body. When arteries become stiff, as they do in the natural process of aging, the ability of the arteries to expand is diminished and also has consequences for the heart. The heart has to work harder to pump the blood into the stiff arteries, and eventually hypertrophies (enlarges in size) to accomplish this. A hypertrophied heart is an inefficient pump, and is one of the disorders that leads to congestive heart failure. […] The potential clinical benefit of this is to lessen the effort that the heart must expend to push blood throughout the body. The effect is also believed to contribute to preventing hypertrophy and subsequent inefficiency of the heart, which inefficiency would contribute to congestive heart failure.
Atherosclerosis is a disease that involves deposition of blood lipids in plaque in the arteries throughout the body. In coronary arteries, accumulation of plaque progressively leads to reduced coronary flow, with occlusion of the arteries causing focal death of cardiac tissue (myocardial infarction, heart attack). If the amount of tissue that dies is large enough, death ensures. […]

[3] = system: dog model for diabetes; assay: Dog model for diabetes, indicators of ventricular elasticity; format: in vivo
Excerpt: (§1) Cardiovascular risk correlates more closely with the systolic and the pulse pressure than with the diastolic pressure. In diabetic patients, the cardiovascular risk profile of diabetic patients is strongly correlated to duration of diabetes, glycemic control and blood pressure. Structural matrix proteins contribute to the function of vessels and the heart, and changes in the physical behavior of cardiovascular walls are believed to be important determinants of circulatory function. In elderly individuals, the loss of compliance in the aorta leads to isolated systolic hypertension, which in turn expands the arterial wall and thereby diminishes the dynamic range of elasticity. […] Treatment with 3-[2-phenyl-2-oxoethyl]-4,5-dimethyl-thiazolium salt lead to a reduction in the mass of collagen in cardiovascular tissues.

[4] = system: rodents, canines and primates; assay: In vivo studies of vascular stiffening and collagen mass in cardiovascular tissues
Excerpt: as §1

[5] = system: TGFbeta; assay: In situ hybridization studies
Excerpt: as §1

[6] = system: Type IV collagen; assay: In situ hybridization studies
Excerpt: as §1

Cc1sc[n+](CC(=O)c2ccccc2)c1C [compound A, 3-[2-phenyl-2-oxoethyl]-4,5-dimethyl-thiazolium salt] was tested, and the “thickness of the ventricular wall in the infarcted zone” value [1] was 2.56±0.22 mm, the “weight of the infarcted tissue” value [1] was 0.11 ± 0.05 g and the “stiffness of arteries, as measured by the ratio of stroke volume (ml) to pulse pressure (mm Hg)” value ([2]; Phase Ia clinical trial) was “showed an ability to reverse the stiffness of arteries”. For the same compound, the pulse pressure ([2]; Phase Ia trial, elderly patients with pulse pressures greater than 60 mm Hg) was “reduced”, the end diastolic pressure [3] was “returned to a value at about the mid-point between the disease impaired value and the value for control dogs” and the end diastolic volume [3] was “returned to a value at about the mid-point between the disease impaired value and the value for control dogs”. The “mass of collagen in cardiovascular tissues” value ([4]; in vivo) was “reduction”, the vascular stiffening ([4]; in vivo studies in rodents, canines and primates) was “substantially ameliorating vascular stiffening” and the “expression of TGFbeta” value [5] was “reduces”. For the same compound, the “expression of Type IV collagen” value [6] was “reduces”.
